Data set [1] has as its system NCI-H1975 cells. Nature of the data set: Cell viability (SRB assay), NCI-H1975. Format: cell-based, human. On the technique in general: In SRB staining, fixed cells bind dye roughly in proportion to their protein.
Method: (§4) Cell viability assay was performed using SRB assay as described previously [22].
In data set [2] the test system is A549 cells. Nature of the data set: Colony formation, A549. It is filed as cell-based, human. The following applies: A549, 72 h treatment then 10 days culture. The source says: (§1) The cells were then washed once with PBS and continue to culture with full-growth medium for 10 days, change the culture medium to fresh ones every three days. Cells were stained with 0.1% crystal violet after fixing with 100% methanol.

Another data set deals with T1, c-Met (Homo sapiens, UniProt P08581).
T1 construct: purchased Abnova KA0055
T1 sequence (P08581 25-1390): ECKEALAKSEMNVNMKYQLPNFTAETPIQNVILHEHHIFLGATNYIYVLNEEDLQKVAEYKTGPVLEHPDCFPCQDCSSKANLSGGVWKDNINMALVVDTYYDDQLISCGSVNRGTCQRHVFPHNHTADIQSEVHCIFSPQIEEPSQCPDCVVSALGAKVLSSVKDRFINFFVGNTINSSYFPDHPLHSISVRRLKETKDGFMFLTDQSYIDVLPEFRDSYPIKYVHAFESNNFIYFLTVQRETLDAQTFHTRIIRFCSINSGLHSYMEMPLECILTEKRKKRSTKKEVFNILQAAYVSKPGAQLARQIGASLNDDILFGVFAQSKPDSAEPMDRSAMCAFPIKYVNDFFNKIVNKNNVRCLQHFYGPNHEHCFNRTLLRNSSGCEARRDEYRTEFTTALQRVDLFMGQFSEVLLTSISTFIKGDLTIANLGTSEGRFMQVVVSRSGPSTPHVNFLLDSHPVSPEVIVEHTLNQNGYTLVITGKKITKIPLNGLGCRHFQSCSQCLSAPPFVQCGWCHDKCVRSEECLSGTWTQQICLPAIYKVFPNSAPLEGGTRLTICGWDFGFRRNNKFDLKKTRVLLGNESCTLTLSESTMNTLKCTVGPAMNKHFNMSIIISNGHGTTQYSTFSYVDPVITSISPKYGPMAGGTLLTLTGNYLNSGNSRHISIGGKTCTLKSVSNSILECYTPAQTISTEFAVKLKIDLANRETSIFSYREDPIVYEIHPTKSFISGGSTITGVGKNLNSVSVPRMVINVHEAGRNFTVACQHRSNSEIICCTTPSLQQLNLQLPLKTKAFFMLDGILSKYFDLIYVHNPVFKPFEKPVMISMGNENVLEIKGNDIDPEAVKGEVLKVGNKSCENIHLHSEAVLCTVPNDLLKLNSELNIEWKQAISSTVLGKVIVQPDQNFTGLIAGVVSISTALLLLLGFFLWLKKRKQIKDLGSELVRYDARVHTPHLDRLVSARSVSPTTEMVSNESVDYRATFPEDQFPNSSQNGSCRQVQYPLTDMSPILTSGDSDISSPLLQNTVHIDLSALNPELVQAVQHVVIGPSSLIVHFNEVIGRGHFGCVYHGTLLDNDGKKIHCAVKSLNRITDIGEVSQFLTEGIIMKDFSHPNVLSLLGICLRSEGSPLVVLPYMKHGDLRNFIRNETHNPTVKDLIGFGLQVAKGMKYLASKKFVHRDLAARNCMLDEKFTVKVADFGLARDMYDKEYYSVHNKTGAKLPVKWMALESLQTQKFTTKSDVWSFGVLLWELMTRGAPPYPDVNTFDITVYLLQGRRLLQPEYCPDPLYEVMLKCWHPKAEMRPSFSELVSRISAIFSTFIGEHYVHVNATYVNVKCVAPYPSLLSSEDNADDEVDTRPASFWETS
The data set is described as follows: c-Met kinase activity assay (Met Kinase Assay/Inhibitor Screening Kit). It is filed as biochemical. Particulars: cell-free kinase activity.

The test system of another data set is NCI-H1975 xenograft. Nature of the data set: NCI-H1975 nude mouse xenograft model. Format: in vivo. How it is done: (§2) All animal experiments were followed the guidelines approved by the Seoul National University Institutional Animal Care and Use Committee (IACUC permission number SNU-170103-2-1). […]. Drug treatment started when their tumor volumes reached to 80–100 mm^3. […]. Body weight and tumor size were measured three times per week. The tumor size was calculated according to the formula V = 0.5 × length × width^2.

A short description of data set [3]: Pharmacokinetic study in male ICR mice. It is filed as in vivo. Particulars: mouse, plasma, po 10 mg/kg. How it is done:
The male ICR mice (25–30 g, 7–8 weeks of age) were purchased from Koatech Co. (Pyeontak, Kyonggi-do, Korea). Animals were fed with free access to standard chow diet and water. All animal use and care followed the guidelines approved by the Institutional Animal Care and Use Committee of Flow Sciences.INC. (Approval No.: NDDC PK 2018 076 01-DFX117-(4364)). Animals were acclimatized for 1 week at of 23–25 °C temperature, 40–70% relative humidity and 12 h light/12 h dark cycle before study. […] Approximately 80 µL of blood samples were collected into BD Microtainer plasma separator tubes at times 0.25, 0.5, 1.0, 2.0, 4.0, 6.0 and 8.0 h through the saphenous vein over […] post dosing. Blood samples were centrifuged at 15,000 rpm for 5 min and stored in a freezer until analysis. Protein precipitation was conducted on 15 µL of plasma samples using three volumes of acetonitrile containing carbamazepine as an internal analytical standard. After centrifugation, the supernatant was analyzed on a Nexera XR system (Shimadzu, Japan) system coupled with TSQ vantage triple quadruple (Thermo Fisher Scientific, Waltham, MA, USA) system. Chromatographic separation was performed on a Kinetex XB-C18 column (2.1 × 100 mm, 2.6 μm, particle size; Phenomenex, CA, USA) running a linear gradient of solvent A (0.1% formic acid in deionized water) and B (0.1% formic acid in acetonitrile). Detection of the analyte ions was performed in a positive MRM mode, monitoring the following precursor >product ion transitions: m/z 573.1 > 417.8. Analytical data were processed using MassHunter B04.01 (Agilent Korea, Seoul, Korea). Pharmacokinetic parameters were calculated via non-compartmental analysis of the plasma concentration-time profiles using PK Solver.

For data set [4], the system named is A549 cells. Nature of the data set: Cell viability (SRB assay), A549. It is filed as cell-based, human.
Method: as §4
A further data set has as its system A549 xenograft. The data set is described as follows: A549 nude mouse xenograft model. It is filed as in vivo. How it is done: as §2
A short description of data set [5]: Cell viability (SRB assay), normal MRC-5. Format: cell-based. The following applies: human, normal cell line.
Method: as §4
Data set [6] has as its system A549 cells. Nature of the data set: Annexin V-FITC/PI apoptosis assay, A549. The following applies: A549, 0.4 μM, 48 h; control 6.09%. It is filed as cell-based, human. How it is done: (§3) Annexin FITC/PI assay was performed as described previously. Cell apoptosis was evaluated using Annexin V FITC/PI apoptosis detection kit (BD Biosciences, San Jose, CA, USA) according to the manufacturer’s instruction. […] Wash the cells with cold PBS buffer before staining with 5 μL of Annexin V-FITC and 5 μL of propidium iodide in the 500 μL 1× binding buffer. Finally, the stained cells were incubated for 15 min at room temperature in the dark before analyzing with FACS Calibur flow cytometer, (Becton Dickinson, San Jose, CA, USA).

For the next data set, the system named is phospho-Met. Nature of the data set: Phospho-receptor tyrosine kinase array, A549. The following applies: A549 cells, 0.2 μM. It is filed as cell-based, human. How it is done:
Phosphorylated RTKs were measured with the Human Phospho-RTK Array Kit (ARY001B) from R&D Systems (Minneapolis, MN, USA) according to the manufacturer’s instructions.

In data set [7] the test system is NCI-H1975 cells. The data set is described as follows: Annexin V-FITC/PI apoptosis assay, NCI-H1975. Format: cell-based, human. Particulars: NCI-H1975, 0.4 μM, 48 h; control 4.15%. How it is done: as §3
The subject of data set [8] is NCI-H1975 cells. Nature of the data set: Colony formation, NCI-H1975. Format: cell-based, human. The following applies: NCI-H1975, 72 h treatment then 10 days culture.
From the text: as §1

Here are results for one molecule from PMC6562471 (Cancers, 2019).

As usually defined, the IC50 is the concentration at which inhibition is half-maximal. By AUC is commonly meant concentration integrated over time. A word on the Cmax: it is the highest concentration seen after dosing. By Tmax is commonly meant the time from dosing to the highest level. As a reminder, the half-life is the time in which the quantity being followed falls by half. As to `COc1ncc(-c2ccc3ncc(C(=O)NCCN4CCOCC4)n3c2)cc1NS(=O)(=O)c1ccc(F)cc1F` [DFX117, 6-(5-(2,4-difluorophenylsulfonamido)-6-methoxypyridin-3-yl)-N-(2-morpholinoethyl) imidazo[1,2-a]pyridine-3-carboxamide], the “Growth inhibitory activity compared with HS-173” value in the data set with NCI-H1975 cells [1] and with A549 cells [4] was “superior to that of HS-173” each time. The Colony formation entry in the data set on A549 cells [2] and in the data set on NCI-H1975 cells [8] was “significantly inhibited” throughout. For the same molecule, the 50% inhibitory concentration (IC50) was 17.1 nM on c-Met and 2890 nM in data set [5]. For the same molecule, the “Overt toxicity or body weight change” value in the data set on NCI-H1975 xenograft (10 or 20 mg/kg orally daily for 23 days) is recorded as “No overt toxicity or body weight change was observed”; in the data set on A549 xenograft (A549 xenograft, 5, 10 or 20 mg/kg orally daily for 23 days) it was “No overt toxicity or body weight change was observed”. Moreover, in the data set on NCI-H1975 xenograft (oral daily for 23 days), the Tumor weights entry was “significantly inhibited”. Further, in data set [3], the area under the curve (AUC) worked out at 3340 ng·h/mL. In addition, the Cmax in data set [3] turned out to be 4500 ng/mL. Also, the Tmax in data set [3] came to 0.3 h. The molecule further gave a half-life in data set [3] of 2.1 h. Further, the MRT inf in [3] (read-out: MRTinf_obs) came out at 2.2 h. Further, the “Excised tumor weights on the termination day” value in the data set with A549 xenograft (A549 xenograft, oral daily for 23 days) is “significantly inhibited”. For the same molecule, the “Population of apoptotic cells (Annexin V positive)” value in the data set on A549 cells [6] came to 26.84%; in the data set with NCI-H1975 cells [7], 32.75%. The “Phospho-Met level (phospho-RTK array)” value in the data set with phospho-Met is on record as “markedly suppressed”.
